The record followed here is article PMC5331433, “Ustiloxin G, a New Cyclopeptide Mycotoxin from Rice False Smut Balls” (Toxins, 2017).

The subject of one assay is BGC-823. Put plainly: Cytotoxicity, MTT assay, BGC-823. To be noted: gastric cancer cells, 24 h treatment, absorbance 570 nm, three replicates. It is filed as cell-based, human. As for the experimental part:
(§1) Cytotoxicity of the compounds were tested against human carcinoma cells using the microculture methyl-thiazolyl-tetrazolium (MTT) assay as described previously. Briefly, the cell lines were maintained in a humidified atmosphere containing 5% CO2 at 37 °C. For preparing working solution, 1 μmol of each purified ustiloxin was dissolved in 10 mL of ultrapure water to obtain the stock solution (100 μM), which was further diluted to a series of concentrations (50, 25, 12.5, 6.25, 3.125, 1, 0.1, 1 × 10^−2, 1 × 10^−3, 1 × 10^−4, 1 × 10^−5 μM) with ultrapure water. Normally, 200 μL of the cell suspensions (5 × 10^4 cells/mL) was plated in 96-well culture plates at 37 °C. After 12 h, 20 μL of working solution was added to each well respectively and cultured at 37 °C for 24 h. Then, MTT was dissolved in saline to 5 mg/mL, and 20 μL of this solution was added to each well. After 4 h, the medium was removed, and then 100 μL of DMSO was added to dissolve any formazan crystals formed. Absorbance was then determined at 570 nm. The cell lines of colon cancer cells (HCT-116), non-small-cell lung carcinoma cells (NCI-H1650), gastric cancer cells (BGC-823), and liver hepatocellular carcinoma cells (HepG2) were tested for all isolated compounds. In addition, lung adenocarcinoma cells (A549) were tested on ustiloxins A (2), B (3), and G (1), and melanoma cells (A375) were tested on ustiloxin G (1). Ultrapure water and taxol were used as the negative and positive controls, respectively. All experiments were performed with three replicates.
On the technique in general: Formazan colour is commonly taken as a measure of viable cells.

A further assay relates to NCI-H1650. The assay is described as follows: Cytotoxicity, MTT assay, NCI-H1650. It is filed as cell-based, human. To be noted: non-small-cell lung carcinoma cells, 24 h treatment, absorbance 570 nm, three replicates. As for the experimental part:
as §1

For assay [1], the system named is rice (Oryza sativa) seeds, radicle. The assay is described as follows: Inhibition of radicle elongation of rice seeds. As to conditions: 48 h, 25 °C, dark, mean of triplicate ± SD. As for the experimental part:
(§2) Phytotoxicity of the compounds was evaluated by their inhibitory activities on the radicle and germ elongation of rice (Oryza sativa) seeds. Two varieties (Lijiang and Zhonghua 11) of the seeds, which were obtained from Prof. Zejian Guo (Department of Plant Pathology and collected in 2015, China Agricultural University) were used.
(§3) The bioassay was performed using the method described previously with some modifications. Briefly, five 3-day germinated rice seeds of each rice variety were sown onto each well of a 24-well plate, containing 200 μL of working solution. For preparing working solution, 1 mg of each purified compound was dissolved in 1 mL of ultrapure water to obtain the stock solution (1 mg/mL), which was further diluted to a series of concentrations (200, 100, 50, 20, and 10 μg/mL) with ultrapure water. The ultrapure water was used as the negative control, and glyphosate (N-(phosphonomethyl)glycine) at the same concentrations as the positive control. Plates were incubated in a moist chamber at 25 °C in the dark. The length of each radicle or germ was measured after treatment for 48 h. The inhibition of radicle or germ elongation was calculated as follows: Inhibition (%) = [(Lc − Lt)/Lc] × 100, where Lc is the radicle or germ length of the control group, and Lt is the length of the treated group.
(§4) All experiments were performed with three replicates, and the results were represented by their mean values and the standard deviations (SD). The data were carried out using analysis of variance (one-way ANOVA) to detect significant differences by PROC ANOVA of SAS version 8.2.

The subject of a further assay is HCT116. Put plainly: Cytotoxicity, MTT assay, HCT116. In kind it is cell-based, human. To be noted: colon cancer cells, 24 h treatment, absorbance 570 nm, three replicates. The protocol: as §1
Assay [2] concerns rice (Oryza sativa) seeds, germ. The assay is described as follows: Inhibition of germ elongation of rice seeds. To be noted: 48 h, 25 °C, dark, mean of triplicate ± SD. As for the experimental part: as §2, §3, §4
For another assay, the system named is HepG2. Put plainly: Cytotoxicity, MTT assay, HepG2. It is filed as cell-based, human. To be noted: liver hepatocellular carcinoma cells, 24 h treatment, absorbance 570 nm, three replicates. The protocol:
as §1

A further assay has as its system A549. The assay is described as follows: Cytotoxicity, MTT assay, A549. It is filed as cell-based, human. To be noted: lung adenocarcinoma cells, 24 h treatment, absorbance 570 nm, three replicates. As for the experimental part:
as §1

A further assay concerns rice seedlings. Put plainly: Abnormal swelling of roots and germs of rice seedlings. To be noted: observation in words; Figure 3B shows 200 µg/mL of ustiloxin G, variety Lijiang. Set-up: species or system Oryza sativa. As for the experimental part:
as §3

Usually IC50 stands for the point on the concentration scale where inhibition reaches its midpoint. A high value points to lower potency.

With `CC[C@@]1(C)Oc2cc(ccc2O)[C@@H](O)[C@H](NC)C(=O)N[C@@H](C)C(=O)N[C@@H]1C(=O)NCC(=O)O` [Ustiloxin F (5), ustiloxin F], the concentration for half-maximal inhibition (IC50) in the assay with BGC-823, in the assay with NCI-H1650, in the assay on HCT116 and in the assay with HepG2 was more than 50 µM each time. In addition, the “Inhibition Ratio (%) Seed Radicle Var. Lijiang” value in assay [1] (10 µg/mL) is reported as 5.07 ± 4.95 l %; in assay [1] (20 µg/mL) it was 8.97%; in assay [1] (50 µg/mL), 22.17%; in assay [1] (100 µg/mL) it was 26.72 ± 5.84 h %; in assay [1] (200 µg/mL), 38.25%. Moreover, the “Inhibition Ratio (%) Seed Radicle Var. Zhonghua 11” value in assay [1] (10 µg/mL) worked out at 0.75%; in assay [1] (20 µg/mL) it was 9.59 ± 3.80 l %; in assay [1] (50 µg/mL) it was 16.51%; in assay [1] (100 µg/mL) it was 23.78%; in assay [1] (200 µg/mL) it was 36.83%. For the same compound, the “Inhibition Ratio (%) Seed Germ Var. Lijiang” value is reported as 7.07% in assay [2] (10 µg/mL); 7.90 ± 4.3 k1% in assay [2] (20 µg/mL); 9.14% in assay [2] (50 µg/mL); 15.16% in assay [2] (100 µg/mL); 24.57% in assay [2] (200 µg/mL). The “Inhibition Ratio (%) Seed Germ Var. Zhonghua 11” value in assay [2] (10 µg/mL) is given as 1.89 ± 4.86 p %; in assay [2] (20 µg/mL), 9.36%; in assay [2] (50 µg/mL) it was 14.97%; in assay [2] (100 µg/mL) it was 17.77%; in assay [2] (200 µg/mL), 18.71%.
With `O=C(O)CNCP(=O)(O)O` [Glyphosate, N-(phosphonomethyl)glycine, reference compound], the “Inhibition Ratio (%) Seed Radicle Var. Lijiang” value in assay [1] (10 µg/mL) came to 36.84 ± 2.91 g %; in assay [1] (20 µg/mL), 62.91 ± 5.03 d %; in assay [1] (50 µg/mL), 85.08%; in assay [1] (100 µg/mL), 93.64 ± 2.66 a %; in assay [1] (200 µg/mL), 95.61 ± 2.74 a %. The “Inhibition Ratio (%) Seed Radicle Var. Zhonghua 11” value in assay [1] (10 µg/mL) is 28.24%; in assay [1] (20 µg/mL), 41.52 ± 5.20 e %; in assay [1] (50 µg/mL), 68.88 ± 3.85 c %; in assay [1] (100 µg/mL) it was 81.05 ± 2.04 b %; in assay [1] (200 µg/mL) it was 87.72%. In addition, the “Inhibition Ratio (%) Seed Germ Var. Lijiang” value in assay [2] (10 µg/mL) was found to be 20.99%; in assay [2] (20 µg/mL), 37.82 ± 4.05 e %; in assay [2] (50 µg/mL) it was 59.32 ± 5.06 c %; in assay [2] (100 µg/mL) it was 68.21%; in assay [2] (200 µg/mL) it was 71.36 ± 2.68 a %. The “Inhibition Ratio (%) Seed Germ Var. Zhonghua 11” value is reported as 21.16% in assay [2] (10 µg/mL); 29.21% in assay [2] (20 µg/mL); 35.36% in assay [2] (50 µg/mL); 57.60 ± 3.44 a % in assay [2] (100 µg/mL); 58.93 ± 6.04 a % in assay [2] (200 µg/mL).
On to `CC[C@@]1(C)Oc2cc(c([S+]([O-])C[C@@H](O)C[C@H](N)C(=O)O)cc2O)[C@@H](O)[C@H](NC)C(=O)N[C@@H](C(C)C)C(=O)N[C@@H]1C(=O)NCC(=O)O` (stereo partly shown) [Ustiloxin A (2), ustiloxin A], for which the IC50 in the assay on BGC-823 is 2.66 µM; in the assay with NCI-H1650 it was more than 50 µM; in the assay on A549, 3.12 µM; in the assay on HCT116, more than 50 µM; in the assay on HepG2 it was more than 50 µM. Besides, the “Inhibition Ratio (%) Seed Radicle Var. Lijiang” value in assay [1] (10 µg/mL) turned out to be 17.83%; in assay [1] (20 µg/mL), 43.57 ± 0.61 f %; in assay [1] (50 µg/mL), 87.38 ± 0.79 b %; in assay [1] (100 µg/mL), 94.53 ± 0.36 a %; in assay [1] (200 µg/mL), 96.64 ± 0.36 a %. Moreover, the “Inhibition Ratio (%) Seed Radicle Var. Zhonghua 11” value in assay [1] (10 µg/mL) is recorded as 12.27 ± 6.71 l %; in assay [1] (20 µg/mL), 56.16 ± 2.30 d %; in assay [1] (50 µg/mL), 89.14 ± 4.38 a %; in assay [1] (100 µg/mL), 93.72 ± 0.54 a %; in assay [1] (200 µg/mL), 95.29 ± 1.63 a %. For the same compound, the “Inhibition Ratio (%) Seed Germ Var. Lijiang” value in assay [2] (10 µg/mL) is 11.38%; in assay [2] (20 µg/mL), 18.00%; in assay [2] (50 µg/mL) it was 39.01 ± 6.84 e %; in assay [2] (100 µg/mL) it was 50.59 ± 6.36 d %; in assay [2] (200 µg/mL), 60.27%. Also, the “Inhibition Ratio (%) Seed Germ Var. Zhonghua 11” value in assay [2] (10 µg/mL) is 13.25%; in assay [2] (20 µg/mL) it was 26.59%; in assay [2] (50 µg/mL) it was 42.04%; in assay [2] (100 µg/mL) it was 45.47%; in assay [2] (200 µg/mL) it was 52.33%. For the same compound, the “abnormal swelling of the roots and germs of rice seedlings” value in the assay with rice seedlings is “abnormal swelling”.
Turning to `CC[C@@]1(C)Oc2cc(ccc2O)[C@@H](O)[C@H](NC)C(=O)N[C@@H](C(C)C)C(=O)N[C@@H]1C(=O)NCC(=O)O` [Ustiloxin D (4), ustiloxin D], the IC50 with BGC-823, in the assay on NCI-H1650, in the assay on HCT116 and in the assay with HepG2 was more than 50 µM in each case. Moreover, the “Inhibition Ratio (%) Seed Radicle Var. Lijiang” value in assay [1] (10 µg/mL) came to 4.43 ± 5.47 l %; in assay [1] (20 µg/mL), 5.42 ± 3.45 l %; in assay [1] (50 µg/mL), 11.89%; in assay [1] (100 µg/mL) it was 79.92 ± 6.26 c %; in assay [1] (200 µg/mL) it was 94.92 ± 0.79 a %. In addition, the “Inhibition Ratio (%) Seed Radicle Var. Zhonghua 11” value in assay [1] (10 µg/mL) turned out to be 13.55%; in assay [1] (20 µg/mL) it was 23.31%; in assay [1] (50 µg/mL), 41.47 ± 4.88 e %; in assay [1] (100 µg/mL), 90.79 ± 0.94 a %; in assay [1] (200 µg/mL) it was 93.90 ± 2.11 a %. Further, the “Inhibition Ratio (%) Seed Germ Var. Lijiang” value in assay [2] (10 µg/mL) stood at 10.73%; in assay [2] (20 µg/mL), 11.67%; in assay [2] (50 µg/mL), 11.87%; in assay [2] (100 µg/mL), 19.92%; in assay [2] (200 µg/mL) it was 38.76 ± 5.68 e %. Besides, the “Inhibition Ratio (%) Seed Germ Var. Zhonghua 11” value in assay [2] (10 µg/mL) came out at 10.98%; in assay [2] (20 µg/mL), 12.28%; in assay [2] (50 µg/mL), 16.19%; in assay [2] (100 µg/mL), 25.48%; in assay [2] (200 µg/mL), 31.86%.
